Drawing on patent publication US12581252B2, “Substituted pyrrolo[3,4-b]pyridines as PI3K-α inhibitors” (Relay Therapeutics, Inc., priority 2020, dated 2026), this text covers IC50 for 32 compounds.

This experiment deals with H1047R PIK3CA enzyme (Homo sapiens, UniProt P42336, H1047R). The experiment can be described thus: ADP-Glo Biochemical PIK3CA Kinase Assay.
Chain of H1047R PIK3CA enzyme (P42336 whole entry H1047R): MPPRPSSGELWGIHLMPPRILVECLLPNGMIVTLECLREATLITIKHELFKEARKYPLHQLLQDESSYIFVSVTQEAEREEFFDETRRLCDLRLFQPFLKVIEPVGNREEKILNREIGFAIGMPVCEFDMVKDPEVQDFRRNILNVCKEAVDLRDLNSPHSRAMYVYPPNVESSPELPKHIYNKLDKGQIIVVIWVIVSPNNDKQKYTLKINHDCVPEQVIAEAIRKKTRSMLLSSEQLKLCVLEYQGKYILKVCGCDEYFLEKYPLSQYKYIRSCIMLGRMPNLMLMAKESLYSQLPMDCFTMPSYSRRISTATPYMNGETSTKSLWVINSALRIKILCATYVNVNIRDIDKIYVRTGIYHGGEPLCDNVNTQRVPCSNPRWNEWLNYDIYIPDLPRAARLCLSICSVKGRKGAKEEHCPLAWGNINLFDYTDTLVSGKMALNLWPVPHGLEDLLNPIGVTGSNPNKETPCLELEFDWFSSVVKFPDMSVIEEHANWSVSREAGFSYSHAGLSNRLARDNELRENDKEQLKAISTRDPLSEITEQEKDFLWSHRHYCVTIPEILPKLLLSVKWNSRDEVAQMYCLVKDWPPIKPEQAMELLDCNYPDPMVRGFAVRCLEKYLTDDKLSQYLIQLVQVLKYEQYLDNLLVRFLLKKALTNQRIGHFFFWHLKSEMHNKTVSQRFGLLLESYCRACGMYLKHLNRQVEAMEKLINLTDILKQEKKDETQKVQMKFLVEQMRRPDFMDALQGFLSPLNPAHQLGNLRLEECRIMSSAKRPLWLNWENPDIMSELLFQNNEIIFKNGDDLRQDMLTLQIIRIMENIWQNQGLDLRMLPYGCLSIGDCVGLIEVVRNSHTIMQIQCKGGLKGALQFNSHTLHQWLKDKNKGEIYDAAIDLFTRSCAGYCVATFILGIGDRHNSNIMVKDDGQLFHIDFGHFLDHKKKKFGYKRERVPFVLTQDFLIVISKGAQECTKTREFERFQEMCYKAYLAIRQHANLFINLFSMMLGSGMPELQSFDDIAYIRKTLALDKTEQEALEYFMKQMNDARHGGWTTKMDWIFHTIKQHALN
Chain of H1047R PIK3CA enzyme (P27986 whole entry partner): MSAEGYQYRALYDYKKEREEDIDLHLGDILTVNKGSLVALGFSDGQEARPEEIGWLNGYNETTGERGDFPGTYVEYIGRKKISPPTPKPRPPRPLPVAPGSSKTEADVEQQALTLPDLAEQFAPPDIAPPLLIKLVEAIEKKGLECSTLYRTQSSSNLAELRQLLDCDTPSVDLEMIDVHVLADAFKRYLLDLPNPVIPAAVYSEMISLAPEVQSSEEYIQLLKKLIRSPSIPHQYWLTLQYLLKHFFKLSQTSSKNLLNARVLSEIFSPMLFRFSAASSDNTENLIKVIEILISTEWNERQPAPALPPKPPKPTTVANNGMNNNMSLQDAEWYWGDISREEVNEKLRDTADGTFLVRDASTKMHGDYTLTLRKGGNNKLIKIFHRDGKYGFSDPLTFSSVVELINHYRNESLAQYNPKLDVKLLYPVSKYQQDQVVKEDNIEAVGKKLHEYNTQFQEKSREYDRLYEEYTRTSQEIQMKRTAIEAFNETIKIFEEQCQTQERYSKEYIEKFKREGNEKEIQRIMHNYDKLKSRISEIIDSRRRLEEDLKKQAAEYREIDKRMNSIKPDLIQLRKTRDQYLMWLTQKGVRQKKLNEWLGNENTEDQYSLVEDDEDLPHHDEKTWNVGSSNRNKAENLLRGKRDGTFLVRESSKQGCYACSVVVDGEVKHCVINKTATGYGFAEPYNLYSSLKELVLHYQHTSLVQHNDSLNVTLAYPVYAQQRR
One may read the IC50 as the concentration that inhibits the measured activity by half. A higher IC50 goes with weaker potency in that assay. Regarding `O=C1N[C@H](c2cc(F)ccc2Cl)c2c(NC(=O)N3C[C@@](O)(C(F)F)c4ccccc43)cccc21` (single isomer, unassigned) [Compound I-2484], the IC50 lay within 10000 to 100000 nM. With `O=C1N[C@@H](c2cc(F)ccc2Cl)c2c(NC(=O)N3C[C@](O)(C(F)F)c4ccccc43)cccc21` (single isomer, unassigned) [Compound I-2485], the 50% inhibitory concentration (IC50) is 1000 to 10000 nM. As for `O=C1N[C@H](c2cc(F)ccc2Cl)c2c(NC(=O)N3C[C@](O)(C(F)F)c4ccccc43)cccc21` (single isomer, unassigned) [Compound I-2486], the figure is 10000 to 100000 nM; as for `N#Cc1cc(NC(=O)N2C[C@H](O)c3cc(F)ccc32)c2c(c1)C(=O)N[C@H]2c1cc(F)ccc1Cl` (single isomer, unassigned) [Compound I-2491], 100 to 500 nM; as for `N#Cc1cc(NC(=O)N2C[C@@H](O)c3cc(F)ccc32)c2c(c1)C(=O)N[C@@H]2c1cc(F)ccc1Cl` (single isomer, unassigned) [Compound I-2492], 500 to 1000 nM.

Turning to `N#Cc1cc(NC(=O)N2C[C@@H](O)c3cc(F)ccc32)c2c(c1)C(=O)N[C@H]2c1cc(F)ccc1Cl` (single isomer, unassigned) [Compound I-2493], the IC50 was in the range of 100 to 500 nM.

Regarding `O=C1N[C@H](c2cc(F)ccc2Cl)c2c(NC(=O)N3C[C@](O)(C(F)(F)F)c4cc(F)ccc43)ccc(-n3cccn3)c21` (single isomer, unassigned) [Compound I-2494], the IC50 is 1000 to 10000 nM. Next, `O=C1N[C@@H](c2cc(F)ccc2Cl)c2c(NC(=O)N3C[C@@](O)(C(F)(F)F)c4cc(F)ccc43)ccc(-n3cccn3)c21` (single isomer, unassigned) [Compound I-2495]: 10000 to 100000 nM; `O=C1N[C@H](c2cc(F)ccc2Cl)c2c(NC(=O)N3C[C@@](O)(C(F)(F)F)c4cc(F)ccc43)ccc(-n3cccn3)c21` (single isomer, unassigned) [Compound I-2496]: 1000 to 10000 nM.

Compound `C[C@@H](C#N)Cn1cc(-c2cc(NC(=O)N3C[C@H](O)c4cc(F)ccc43)c3c(c2)C(=O)N[C@H]3c2cc(F)ccc2Cl)cn1` (single isomer, unassigned) [Compound I-2499] yielded an IC50 of 1000 to 10000 nM.

For the compound `C[C@H](C#N)Cn1cc(-c2cc(NC(=O)N3C[C@H](O)c4cc(F)ccc43)c3c(c2)C(=O)N[C@@H]3c2cc(F)ccc2Cl)cn1` (single isomer, unassigned) [Compound I-2500], the IC50 was 100 to 500 nM. On to `C[C@@H](C#N)Cn1cc(-c2cc(NC(=O)N3C[C@H](O)c4cc(F)ccc43)c3c(c2)C(=O)N[C@@H]3c2cc(F)ccc2Cl)cn1` (single isomer, unassigned) [Compound I-2501], for which the IC50 was in the range of 100 to 500 nM. In the case of `C[C@H](C#N)Cn1cc(-c2cc(NC(=O)N3C[C@@H](O)c4cc(F)ccc43)c3c(c2)C(=O)N[C@H]3c2cc(F)ccc2Cl)cn1` (single isomer, unassigned) [Compound I-2502], the concentration for half-maximal inhibition (IC50) was 1000 to 10000 nM. As for `C[C@@H](C#N)Cn1cc(-c2cc(NC(=O)N3C[C@@H](O)c4cc(F)ccc43)c3c(c2)C(=O)N[C@@H]3c2cc(F)ccc2Cl)cn1` (single isomer, unassigned) [Compound I-2504], the figure is 1000 to 10000 nM; as for `C[C@@H](C#N)Cn1cc(-c2cc(NC(=O)N3C[C@@H](O)c4cc(F)ccc43)c3c(c2)C(=O)N[C@@H]3c2cc(F)ccc2Cl)cn1` (single isomer, unassigned) [Compound I-2505], 1000 to 10000 nM; as for `O=C1N[C@H](c2cc(F)ccc2Cl)c2c(NC(=O)N3C[C@@](O)(C(F)(F)F)c4ccccc43)cc(Cl)cc21` (single isomer, unassigned) [Compound I-2506], 1000 to 10000 nM. `O=C1N[C@@H](c2cc(F)ccc2Cl)c2c(NC(=O)N3C[C@](O)(C(F)(F)F)c4ccccc43)cc(Cl)cc21` (single isomer, unassigned) [Compound I-2507]: the IC50 is 1000 to 10000 nM. Next, `O=C1N[C@H](c2cc(F)ccc2Cl)c2c(NC(=O)N3C[C@](O)(C(F)(F)F)c4ccccc43)cc(Cl)cc21` (single isomer, unassigned) [Compound I-2508]: 1000 to 10000 nM; `O=C1N[C@H](c2cc(F)ccc2Cl)c2c(NC(=O)N3C[C@@](O)(C(F)(F)F)c4cc(F)ccc43)cc(Cl)cc21` (single isomer, unassigned) [Compound I-2510]: 1000 to 10000 nM.

Compound `O=C1N[C@@H](c2cc(F)ccc2Cl)c2c(NC(=O)N3C[C@](O)(C(F)(F)F)c4cc(F)ccc43)cc(Cl)cc21` (single isomer, unassigned) [Compound I-2511] gave a half-maximal inhibitory concentration (IC50) of 100 to 500 nM. The compound `O=C1N[C@H](c2cc(F)ccc2Cl)c2c(NC(=O)N3C[C@](O)(C(F)(F)F)c4cc(F)ccc43)cc(Cl)cc21` (single isomer, unassigned) [Compound I-2512] returned an IC50 of 1000 to 10000 nM. Next, `O=C1N[C@H](c2cc(F)ccc2Cl)c2c(NC(=O)N3C[C@@](O)(C(F)(F)F)c4cc(F)ccc43)cccc21` (single isomer, unassigned) [Compound I-2514]: 10000 to 100000 nM; `O=C1N[C@@H](c2cc(F)ccc2Cl)c2c(NC(=O)N3C[C@](O)(C(F)(F)F)c4cc(F)ccc43)cccc21` (single isomer, unassigned) [Compound I-2515]: 1000 to 10000 nM; `O=C1N[C@H](c2cc(F)ccc2Cl)c2c(NC(=O)N3C[C@](O)(C(F)(F)F)c4cc(F)ccc43)cccc21` (single isomer, unassigned) [Compound I-2516]: 1000 to 10000 nM. As for `O=C1N[C@@H](c2cc(F)ccc2Cl)c2c(NC(=O)N3C[C@@](O)(C(F)(F)F)c4cc(F)ccc43)ccc(-n3ccnn3)c21` (single isomer, unassigned) [Compound I-2523], the figure is 1000 to 10000 nM; as for `O=C1N[C@H](c2cc(F)ccc2Cl)c2c(NC(=O)N3C[C@@](O)(C(F)(F)F)c4cc(F)ccc43)ccc(-n3ccnn3)c21` (single isomer, unassigned) [Compound I-2524], 1000 to 10000 nM. Next, `O=C1N[C@H](c2cc(F)ccc2Cl)c2c(NC(=O)N3C[C@](O)(C(F)(F)F)c4cc(F)ccc43)ccc(-n3nccn3)c21` (single isomer, unassigned) [Compound I-2526]: 1000 to 10000 nM. The compound `O=C1N[C@@H](c2cc(F)ccc2Cl)c2c(NC(=O)N3C[C@@](O)(C(F)(F)F)c4cc(F)ccc43)ccc(-n3nccn3)c21` (single isomer, unassigned) [Compound I-2527] displayed an IC50 of 1000 to 10000 nM. Next, `O=C1N[C@@H](c2cc(F)ccc2Cl)c2c(NC(=O)N3C[C@](O)(C(F)(F)F)c4cc(F)ccc43)cc(-n3ccccc3=O)cc21` (single isomer, unassigned) [Compound I-2529]: 1000 to 10000 nM; `O=C1N[C@@H](c2cc(F)ccc2Cl)c2c(NC(=O)N3C[C@@](O)(C(F)(F)F)c4cc(F)ccc43)cc(-n3ccccc3=O)cc21` (single isomer, unassigned) [Compound I-2530]: 1000 to 10000 nM; `O=C1N[C@H](c2cc(F)ccc2Cl)c2c(NC(=O)N3C[C@](O)(C(F)(F)F)c4cc(F)ccc43)cc(-n3ccccc3=O)cc21` (single isomer, unassigned) [Compound I-2531]: 1000 to 10000 nM. Next, `O=C1N[C@@H](c2cc(F)ccc2Cl)c2c(NC(=O)N3C[C@](O)(C(F)(F)F)c4cc(F)ccc43)cc(-n3ncccc3=O)cc21` (single isomer, unassigned) [Compound I-2533]: 1000 to 10000 nM.
